Results reported in US20020065219A1, “Water soluble thiazolyl peptide derivatives” (priority 2000, published 2002).
Converted amounts (≈) assume the structure as drawn. Read-outs that look alike come from different tables or passages of the source.

Experiments:
Test in all cases: MIC, broth micro dilution assay (NCCLS)
Format in all cases: cell-based
[1] = system: Streptococcus pneumoniae A28272
[2] = system: Enterococcus faecalis A20688
[3] = system: Staphylococcus aureus A15090
[4] = 50% Mueller-Hinton medium and 50% Todd Hewitt medium, 35° C., 18 hours
[5] = Mueller-Hinton medium, 35° C., 18 hours

Structure (SMILES)	MIC (μg/mL) against Streptococcus pneumoniae A28272 [1]	MIC (μg/mL) against Enterococcus faecalis A20688 [2]	MIC (μg/mL) against Staphylococcus aureus A15090 [3]	MIC (μg/mL) against Streptococcus pneumoniae A28272 [1, 4]	MIC (μg/mL) against Enterococcus faecalis A20688 [2, 5]	MIC (μg/mL) against Staphylococcus aureus A15090 [3, 5]
CO/C(C)=C1/NC(=O)C(C(C)O)NC(=O)c2csc(n2)-c2cc(O)c(-c3nc(C(=O)NC(CNCc4nn[nH]n4)C(N)=O)cs3)nc2-c2csc(n2)C2COC(=O)c3c4c5c(cccc5n3O)COC(=O)C(O[C@H]3C[C@](C)(O)[C@H](N(C)C)[C@H](C)O3)C(OC4)C(NC(=O)c3csc1n3)c1nc(cs1)C(=O)N2 (stereo partly drawn) [Example 50]	0.25 µg/mL (≈ 0.163 µM)	1.0 µg/mL (≈ 0.651 µM)	0.25 µg/mL (≈ 0.163 µM)	–	–	–
CO/C(C)=C1/NC(=O)C(C(C)O)NC(=O)c2csc(n2)-c2cc(O)c(-c3nc(C(=O)NC(CNCCCN4CCN(C)CC4)C(N)=O)cs3)nc2-c2csc(n2)C2COC(=O)c3c4c5c(cccc5n3O)COC(=O)C(O[C@H]3C[C@](C)(O)[C@H](N(C)C)[C@H](C)O3)C(OC4)C(NC(=O)c3csc1n3)c1nc(cs1)C(=O)N2 (stereo partly drawn) [Example 51]	0.015 µg/mL (≈ 0.00941 µM)	4.0 µg/mL (≈ 2.51 µM)	0.25 µg/mL (≈ 0.157 µM)	–	–	–
CO/C(C)=C1/NC(=O)C(C(C)O)NC(=O)c2csc(n2)-c2cc(O)c(-c3nc(C(=O)NC(CN4CCN(c5ccncc5)CC4)C(N)=O)cs3)nc2-c2csc(n2)C2COC(=O)c3c4c5c(cccc5n3O)COC(=O)C(O[C@H]3C[C@](C)(O)[C@H](N(C)C)[C@H](C)O3)C(OC4)C(NC(=O)c3csc1n3)c1nc(cs1)C(=O)N2 (stereo partly drawn) [Example 52]	0.5 µg/mL (≈ 0.312 µM)	1.0 µg/mL (≈ 0.625 µM)	0.5 µg/mL (≈ 0.312 µM)	–	–	–
CO/C(C)=C1/NC(=O)C(C(C)O)NC(=O)c2csc(n2)-c2cc(O)c(-c3nc(C(=O)NC(CN4CCN(CCN5CCOCC5)CC4)C(N)=O)cs3)nc2-c2csc(n2)C2COC(=O)c3c4c5c(cccc5n3O)COC(=O)C(O[C@H]3C[C@](C)(O)[C@H](N(C)C)[C@H](C)O3)C(OC4)C(NC(=O)c3csc1n3)c1nc(cs1)C(=O)N2 (stereo partly drawn) [Example 53]	0.5 µg/mL (≈ 0.305 µM)	1.0 µg/mL (≈ 0.611 µM)	0.5 µg/mL (≈ 0.305 µM)	–	–	–
CO/C(C)=C1/NC(=O)C(C(C)O)NC(=O)c2csc(n2)-c2cc(O)c(-c3nc(C(=O)NC(CN4CCN(CCN(C)C)CC4)C(N)=O)cs3)nc2-c2csc(n2)C2COC(=O)c3c4c5c(cccc5n3O)COC(=O)C(O[C@H]3C[C@](C)(O)[C@H](N(C)C)[C@H](C)O3)C(OC4)C(NC(=O)c3csc1n3)c1nc(cs1)C(=O)N2 (stereo partly drawn) [Example 54]	0.25 µg/mL (≈ 0.157 µM)	0.125 µg/mL (≈ 0.0784 µM)	0.5 µg/mL (≈ 0.314 µM)	–	–	–
CO/C(C)=C1/NC(=O)C(C(C)O)NC(=O)c2csc(n2)-c2cc(O)c(-c3nc(C(=O)NC(CNCCOCCOCCO)C(N)=O)cs3)nc2-c2csc(n2)C2COC(=O)c3c4c5c(cccc5n3O)COC(=O)C(O[C@H]3C[C@](C)(O)[C@H](N(C)C)[C@H](C)O3)C(OC4)C(NC(=O)c3csc1n3)c1nc(cs1)C(=O)N2 (stereo partly drawn) [Example 55]	0.06 µg/mL (≈ 0.0378 µM)	0.5 µg/mL (≈ 0.315 µM)	0.25 µg/mL (≈ 0.158 µM)	–	–	–
CO/C(C)=C1/NC(=O)C(C(C)O)NC(=O)c2csc(n2)-c2cc(O)c(-c3nc(C(=O)NC(CN(C)CCc4c[nH]cn4)C(N)=O)cs3)nc2-c2csc(n2)C2COC(=O)c3c4c5c(cccc5n3O)COC(=O)C(O[C@H]3C[C@](C)(O)[C@H](N(C)C)[C@H](C)O3)C(OC4)C(NC(=O)c3csc1n3)c1nc(cs1)C(=O)N2 (stereo partly drawn) [Example 56]	0.125 µg/mL (≈ 0.08 µM)	0.5 µg/mL (≈ 0.32 µM)	0.25 µg/mL (≈ 0.16 µM)	–	–	–
CO/C(C)=C1/NC(=O)C(C(C)O)NC(=O)c2csc(n2)-c2cc(O)c(-c3nc(C(=O)NC(CNCCOCCOCCOCCN)C(N)=O)cs3)nc2-c2csc(n2)C2COC(=O)c3c4c5c(cccc5n3O)COC(=O)C(O[C@H]3C[C@](C)(O)[C@H](N(C)C)[C@H](C)O3)C(OC4)C(NC(=O)c3csc1n3)c1nc(cs1)C(=O)N2 (stereo partly drawn) [Example 58]	0.25 µg/mL (≈ 0.153 µM)	1.0 µg/mL (≈ 0.614 µM)	1.0 µg/mL (≈ 0.614 µM)	–	–	–
CO/C(C)=C1/NC(=O)C(C(C)O)NC(=O)c2csc(n2)-c2cc(O)c(-c3nc(C(=O)NC(CN4C[C@H](C)NC[C@@H]4C)C(N)=O)cs3)nc2-c2csc(n2)C2COC(=O)c3c4c5c(cccc5n3O)COC(=O)C(O[C@H]3C[C@](C)(O)[C@H](N(C)C)[C@H](C)O3)C(OC4)C(NC(=O)c3csc1n3)c1nc(cs1)C(=O)N2 (stereo partly drawn) [Example 59]	–	–	–	0.25 µg/mL (≈ 0.161 µM)	2.0 µg/mL (≈ 1.29 µM)	1.0 µg/mL (≈ 0.644 µM)
CO/C(C)=C1/NC(=O)C(C(C)O)NC(=O)c2csc(n2)-c2cc(O)c(-c3nc(C(=O)NC(CSC4CN5CCC4CC5)C(N)=O)cs3)nc2-c2csc(n2)C2COC(=O)c3c4c5c(cccc5n3O)COC(=O)C(O[C@H]3C[C@](C)(O)[C@H](N(C)C)[C@H](C)O3)C(OC4)C(NC(=O)c3csc1n3)c1nc(cs1)C(=O)N2 (stereo partly drawn) [Example 60]	0.5 µg/mL (≈ 0.316 µM)	2.0 µg/mL (≈ 1.27 µM)	2.0 µg/mL (≈ 1.27 µM)	–	–	–
CO/C(C)=C1/NC(=O)C(C(C)O)NC(=O)c2csc(n2)-c2cc(O)c(-c3nc(C(=O)NC(CN[C@@H](C)c4ccccc4)C(N)=O)cs3)nc2-c2csc(n2)C2COC(=O)c3c4c5c(cccc5n3O)COC(=O)C(O[C@H]3C[C@](C)(O)[C@H](N(C)C)[C@H](C)O3)C(OC4)C(NC(=O)c3csc1n3)c1nc(cs1)C(=O)N2 (stereo partly drawn) [Example 61]	–	–	–	0.03 µg/mL (≈ 0.0192 µM)	0.25 µg/mL (≈ 0.16 µM)	0.25 µg/mL (≈ 0.16 µM)
CO/C(C)=C1/NC(=O)C(C(C)O)NC(=O)c2csc(n2)-c2cc(O)c(-c3nc(C(=O)NC(CSCCc4cnccn4)C(N)=O)cs3)nc2-c2csc(n2)C2COC(=O)c3c4c5c(cccc5n3O)COC(=O)C(O[C@H]3C[C@](C)(O)[C@H](N(C)C)[C@H](C)O3)C(OC4)C(NC(=O)c3csc1n3)c1nc(cs1)C(=O)N2 (stereo partly drawn) [Example 62]	–	–	–	0.015 µg/mL (≈ 0.00951 µM)	0.25 µg/mL (≈ 0.158 µM)	0.125 µg/mL (≈ 0.0792 µM)
COC[C@@H]1CCCN1CC(NC(=O)c1csc(-c2nc3c(cc2O)-c2nc(cs2)C(=O)NC(C(C)O)C(=O)N/C(=C(\C)OC)c2nc(cs2)C(=O)NC2c4nc(cs4)C(=O)NC(COC(=O)c4c5c6c(cccc6n4O)COC(=O)C(O[C@H]4C[C@](C)(O)[C@H](N(C)C)[C@H](C)O4)C2OC5)c2nc-3cs2)n1)C(N)=O (stereo partly drawn) [Example 63]	–	–	–	0.03 µg/mL (≈ 0.0193 µM)	0.25 µg/mL (≈ 0.161 µM)	0.125 µg/mL (≈ 0.0805 µM)
CO/C(C)=C1/NC(=O)C(C(C)O)NC(=O)c2csc(n2)-c2cc(O)c(-c3nc(C(=O)NC(CN4CCC[C@H]4CN4CCCC4)C(N)=O)cs3)nc2-c2csc(n2)C2COC(=O)c3c4c5c(cccc5n3O)COC(=O)C(O[C@H]3C[C@](C)(O)[C@H](N(C)C)[C@H](C)O3)C(OC4)C(NC(=O)c3csc1n3)c1nc(cs1)C(=O)N2 (stereo partly drawn) [Example 65]	2.0 µg/mL (≈ 1.26 µM)	1.0 µg/mL (≈ 0.628 µM)	0.03 µg/mL (≈ 0.0188 µM)	–	–	–
COC(C)=C1NC(=O)C(C(C)O)NC(=O)c2csc(n2)-c2cc(O)c(-c3nc(C(=O)NC(CNC(CO)Cc4c[nH]cn4)C(N)=O)cs3)nc2-c2csc(n2)C2COC(=O)c3c4c5c(cccc5n3O)COC(=O)C(OC3CC(C)(O)C(N(C)C)C(C)O3)C(OC4)C(NC(=O)c3csc1n3)c1nc(cs1)C(=O)N2 (stereo not drawn) [Example 66]	–	–	–	2.0 µg/mL (≈ 1.27 µM)	16 µg/mL (≈ 10.1 µM)	2.0 µg/mL (≈ 1.27 µM)
COC(C)=C1NC(=O)C(C(C)O)NC(=O)c2csc(n2)-c2cc(O)c(-c3nc(C(=O)NC(CNC(CO)Cc4c[nH]cn4)C(N)=O)cs3)nc2-c2csc(n2)C2COC(=O)c3c4c5c(cccc5n3O)COC(=O)C(OC3CC(C)(O)C(N(C)C)C(C)O3)C(OC4)C(NC(=O)c3csc1n3)c1nc(cs1)C(=O)N2 (stereo not drawn) [Example 67]	–	–	–	1.0 µg/mL (≈ 0.633 µM)	8.0 µg/mL (≈ 5.07 µM)	2.0 µg/mL (≈ 1.27 µM)
CO/C(C)=C1/NC(=O)C(C(C)O)NC(=O)c2csc(n2)-c2cc(O)c(-c3nc(C(=O)NC(CNCCn4cc([N+](=O)[O-])nc4C)C(N)=O)cs3)nc2-c2csc(n2)C2COC(=O)c3c4c5c(cccc5n3O)COC(=O)C(O[C@H]3C[C@](C)(O)[C@H](N(C)C)[C@H](C)O3)C(OC4)C(NC(=O)c3csc1n3)c1nc(cs1)C(=O)N2 (stereo partly drawn) [Example 68]	–	–	–	0.5 µg/mL (≈ 0.311 µM)	8.0 µg/mL (≈ 4.98 µM)	2.0 µg/mL (≈ 1.24 µM)
COCCOCCOCCOCCN1CCN(CC(NC(=O)c2csc(-c3nc4c(cc3O)-c3nc(cs3)C(=O)NC(C(C)O)C(=O)N/C(=C(\C)OC)c3nc(cs3)C(=O)NC3c5nc(cs5)C(=O)NC(COC(=O)c5c6c7c(cccc7n5O)COC(=O)C(O[C@H]5C[C@](C)(O)[C@H](N(C)C)[C@H](C)O5)C3OC6)c3nc-4cs3)n2)C(N)=O)CC1 (stereo partly drawn) [Example 69]	0.25 µg/mL (≈ 0.146 µM)	4.0 µg/mL (≈ 2.33 µM)	0.5 µg/mL (≈ 0.292 µM)	–	–	–
